Columns and labels:
C. elegans [1] = assay: Worm survival assay on solid agar plate; format: in vivo; conditions: thymol 50 M (so in the source), solid agar plates, n=60 per group, vs vehicle (DMSO 1%), log rank test
Description: C. elegans strains were cultured at 20° C. on nematode growth media agar plates seeded with E. coli strain OP50. Thymol was dissolved in DMSO and added at the indicated concentrations just before pouring the plates. Worms were exposed to compounds during the full life from eggs until death. To ensure a permanent exposure to the compound, plates were changed twice a week. The control population was treated with the corresponding concentration of DMSO at 1%. For lifespan measurements, parental F0 L4 worms were grown to reach adulthood and lay eggs on the treatment plates. The derived F1 worms were therefore exposed to compounds during the full life from eggs until death. Adults were daily scored manually as dead or alive. A worm was considered dead if it was not moving spontaneously and it was not responding to a touch on the head. The control population was treated with the corresponding concentration of DMSO at 1%.

C. elegans [2] = assay: Worm survival assay in microfluidics; format: in vivo; conditions: thymol 50 μM, worms treated in microfluidics (conditions mimicking IF), vs vehicle, log rank test
Description: A worm suspension is first injected into a microfluidic device. The geometry of the device is optimized for retaining inside the worm culture chamber only adult worms by simply selecting the correct flow rate for the sample injection. Upon isolation of a defined worm population inside the chamber, worms are cultured and treated on-chip with thymol at controlled temperature of 20° C. Worm culture is maintained in the chamber by the perfusion of E. coli. The microfluidic chip is integrated onto an inverted microscope integrated with a camera that continuously records videos (every 10 hours). Images are longitudinally analyzed by different parameters that include readouts of body bends frequency, velocity, curvature and amplitude of the movement at the head, tail and middle of the body, which automatically provide information about worms health span and vitality.

## Cc1ccc(C(C)C)c(O)c1 [thymol]
C. elegans [1]
  effect on lifespan: no significant effects on lifespan
C. elegans [2]
  effect on lifespan: increases lifespan

Source: patent US20240415786A1, “COMPOSITIONS AND METHODS USING AN AUTOPHAGY INDUCER TO ENHANCE INTERMITTENT FASTING” (SOCIETE DES PRODUITS NESTLE S.A., priority 2021, published 2024)
